Columns and labels:
Type in all cases: functional, cell-based
A549 = assay: Cytotoxicity against human A549 cells assessed as inhibition of cell proliferation after 96 hrs; settings: A549, 96 h
HCT-116 = assay: Cytotoxicity against human HCT116 cells assessed as inhibition of cell proliferation after 96 hrs; settings: HCT-116, 96 h
HT-29 = assay: Cytotoxicity against human HT-29 cells assessed as inhibition of cell proliferation after 96 hrs; settings: HT-29, 96 h

Structure (SMILES)	IC50 (A549) [nM]	IC50 (HCT-116) [nM]	IC50 (HT-29) [nM]
COc1c(Cl)c2c(c(OC)c1OC)-c1ccc(OC)c(=O)cc1[C@@H](NC(=S)Nc1ccc(C#N)cc1)CC2	67.8	25	6.4
COc1c(Cl)c2c(c(OC)c1OC)-c1ccc(OC)c(=O)cc1[C@@H](NC(N)=S)CC2	45	9	6.1
COc1c(Cl)c2c(c(OC)c1OC)-c1ccc(OC)c(=O)cc1[C@@H](NC(=S)N1CCCC1)CC2	12.2	7.2	7.5
COc1c(Cl)c2c(c(OC)c1OC)-c1ccc(OC)c(=O)cc1[C@@H](NC(=O)NC(C)C)CC2	289	189	181
COc1c(Cl)c2c(c(OC)c1OC)-c1ccc(OC)c(=O)cc1[C@@H](NC(=S)N1CCCCC1)CC2	9.6	6.9	6.1
COc1cccc(NC(=S)N[C@H]2CCc3c(Cl)c(OC)c(OC)c(OC)c3-c3ccc(OC)c(=O)cc32)c1	23.3	1.4	0.5
CCCN(CCC)C(=S)N[C@H]1CCc2c(Cl)c(OC)c(OC)c(OC)c2-c2ccc(OC)c(=O)cc21	40.3	34.4	38.2
CNC(=S)N[C@H]1CCc2c(Cl)c(OC)c(OC)c(OC)c2-c2ccc(OC)c(=O)cc21	10.9	6.3	2.8
COc1c(Cl)c2c(c(OC)c1OC)-c1ccc(OC)c(=O)cc1[C@@H](NS(C)(=O)=O)CC2	45.4	36.9	38.6
COc1c(Cl)c2c(c(OC)c1OC)-c1ccc(OC)c(=O)cc1[C@@H](NC(=S)Nc1cnccn1)CC2	37.4	33	19.4
COc1c(CF)c2c(c(OC)c1OC)-c1ccc(OC)c(=O)cc1[C@@H](NC(C)=O)CC2	8790	4750	2620
COc1c(Cl)c2c(c(OC)c1OC)-c1ccc(OC)c(=O)cc1[C@@H](NS(=O)(=O)C(C)C)CC2	44.9	40.7	42.2
COc1c(Cl)c2c(c(OC)c1OC)-c1ccc(OC)c(=O)cc1[C@@H](NC(=S)N1CCC1)CC2	33.3	8.4	5.8
CCNC(=O)N[C@H]1CCc2c(Cl)c(OC)c(OC)c(OC)c2-c2ccc(OC)c(=O)cc21	247	134	81.8
COc1c(Cl)c2c(c(OC)c1OC)-c1ccc(OC)c(=O)cc1[C@@H](NC(=S)NCCO)CC2	251	89.7	52.7
COc1c(Cl)c2c(c(OC)c1OC)-c1ccc(OC)c(=O)cc1[C@@H](NC(=O)N(C)C)CC2	192	50.4	53.2
COc1c(Cl)c2c(c(OC)c1OC)-c1ccc(OC)c(=O)cc1[C@@H](NC(=S)Nc1cncnc1)CC2	941	177	154
COc1c(OC)c2c(c(C(F)F)c1OC)CC[C@H](NC(C)=O)c1cc(=O)c(OC)ccc1-2	55.4	45.8	48.1
CCCCCCNC(=S)N[C@H]1CCc2c(Cl)c(OC)c(OC)c(OC)c2-c2ccc(OC)c(=O)cc21	212	171	176
COc1c(Cl)c2c(c(OC)c1OC)-c1ccc(OC)c(=O)cc1[C@@H](NC(=S)Nc1nccs1)CC2	10.1	6.5	1.1
COc1c(Cl)c2c(c(OC)c1OC)-c1ccc(OC)c(=O)cc1[C@@H](NC(=S)Nc1cccnc1)CC2	186	41.7	31.6
COc1c(Cl)c2c(c(OC)c1OC)-c1ccc(OC)c(=O)cc1[C@@H](NC(=S)Nc1nc(C)cs1)CC2	7.6	2.4	0.4
COc1c(Cl)c2c(c(OC)c1OC)-c1ccc(OC)c(=O)cc1[C@@H](NC(=S)Nc1cccnn1)CC2	39.6	13.2	6.3
COc1c(Cl)c2c(c(OC)c1OC)-c1ccc(OC)c(=O)cc1[C@@H](NC(=O)Nc1ccccc1)CC2	48.1	36	35.2

Reference: ChEMBL document CHEMBL3132750, “4-Chlorocolchicine derivatives bearing a thiourea side chain at the C-7 position as potent anticancer agents” (Medchemcomm, 2014)
